Results from ChEMBL document CHEMBL1138672, “Dopamine/serotonin receptor ligands. 9. Oxygen-containing midsized heterocyclic ring systems and nonrigidized analogues. A step toward dopamine D5 receptor selectivity” (J Med Chem, 2004).

How the values were obtained:
[1] = molecular target: D(1A) dopamine receptor (Homo sapiens, UniProt P21728)
Description: Binding affinity for human recombinant dopamine receptor D1

[2] = molecular target: D(3) dopamine receptor (Homo sapiens, UniProt P35462)
Description: Binding affinity for human recombinant dopamine receptor D3

[3] = molecular target: T1, D(4) dopamine receptor (Homo sapiens, UniProt P21917); assay: Binding affinity for human recombinant dopamine receptor D4.4
T1 sequence (P21917 whole entry): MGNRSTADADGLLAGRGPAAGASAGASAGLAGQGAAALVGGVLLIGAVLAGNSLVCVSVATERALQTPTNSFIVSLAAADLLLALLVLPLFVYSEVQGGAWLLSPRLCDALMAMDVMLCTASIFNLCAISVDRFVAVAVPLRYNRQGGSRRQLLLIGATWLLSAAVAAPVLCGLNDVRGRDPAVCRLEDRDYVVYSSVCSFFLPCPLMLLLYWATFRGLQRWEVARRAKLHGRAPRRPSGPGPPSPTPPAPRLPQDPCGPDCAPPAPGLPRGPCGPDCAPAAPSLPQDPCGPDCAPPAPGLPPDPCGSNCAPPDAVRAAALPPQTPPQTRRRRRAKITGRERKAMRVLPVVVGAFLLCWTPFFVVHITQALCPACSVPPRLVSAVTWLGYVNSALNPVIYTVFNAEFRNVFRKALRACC

[4] = molecular target: D(2) dopamine receptor (Homo sapiens, UniProt P14416); assay: Binding affinity for human recombinant dopamine receptor D2L
[5] = molecular target: D(1B) dopamine receptor (Homo sapiens, UniProt P21918); assay: Binding affinity for human recombinant dopamine receptor D5
Chain of D(1B) dopamine receptor (P21918 whole entry): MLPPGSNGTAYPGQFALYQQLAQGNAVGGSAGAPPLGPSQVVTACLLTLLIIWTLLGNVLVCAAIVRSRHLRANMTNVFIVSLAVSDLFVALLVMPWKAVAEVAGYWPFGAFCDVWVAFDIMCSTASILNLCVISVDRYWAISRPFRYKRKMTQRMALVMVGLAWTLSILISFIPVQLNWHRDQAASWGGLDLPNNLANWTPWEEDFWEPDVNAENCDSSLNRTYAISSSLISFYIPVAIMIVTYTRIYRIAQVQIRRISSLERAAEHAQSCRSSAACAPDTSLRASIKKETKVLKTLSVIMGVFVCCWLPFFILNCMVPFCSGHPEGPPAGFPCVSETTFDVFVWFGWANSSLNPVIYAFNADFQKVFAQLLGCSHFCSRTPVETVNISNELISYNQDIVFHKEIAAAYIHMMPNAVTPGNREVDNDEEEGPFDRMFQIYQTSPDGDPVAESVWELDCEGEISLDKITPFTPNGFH

Chain of D(3) dopamine receptor (P35462 whole entry): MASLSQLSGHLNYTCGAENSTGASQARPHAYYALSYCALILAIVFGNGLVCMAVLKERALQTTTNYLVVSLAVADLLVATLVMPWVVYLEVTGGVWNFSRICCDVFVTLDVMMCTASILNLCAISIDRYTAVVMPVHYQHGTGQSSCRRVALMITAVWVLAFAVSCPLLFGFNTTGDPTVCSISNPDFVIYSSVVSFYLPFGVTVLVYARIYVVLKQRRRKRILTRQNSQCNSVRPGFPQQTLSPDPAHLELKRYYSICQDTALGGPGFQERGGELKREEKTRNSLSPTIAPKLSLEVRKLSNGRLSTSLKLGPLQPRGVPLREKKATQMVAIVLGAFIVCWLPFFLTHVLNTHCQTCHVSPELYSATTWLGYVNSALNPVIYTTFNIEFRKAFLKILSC
Chain of D(2) dopamine receptor (P14416 whole entry): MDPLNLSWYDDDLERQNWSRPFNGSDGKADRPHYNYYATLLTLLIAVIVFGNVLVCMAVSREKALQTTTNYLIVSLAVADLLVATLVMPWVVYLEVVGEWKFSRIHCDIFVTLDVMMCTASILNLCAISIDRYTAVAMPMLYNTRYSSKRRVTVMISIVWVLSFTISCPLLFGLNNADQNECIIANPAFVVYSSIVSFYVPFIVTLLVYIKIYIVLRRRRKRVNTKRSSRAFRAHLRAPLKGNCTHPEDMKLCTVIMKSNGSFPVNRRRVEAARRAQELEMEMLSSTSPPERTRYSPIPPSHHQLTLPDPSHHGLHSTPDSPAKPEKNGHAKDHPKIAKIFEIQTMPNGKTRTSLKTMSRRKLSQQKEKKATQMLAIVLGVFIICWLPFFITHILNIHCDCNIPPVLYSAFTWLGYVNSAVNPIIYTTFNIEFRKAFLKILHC
Chain of D(1A) dopamine receptor (P21728 whole entry): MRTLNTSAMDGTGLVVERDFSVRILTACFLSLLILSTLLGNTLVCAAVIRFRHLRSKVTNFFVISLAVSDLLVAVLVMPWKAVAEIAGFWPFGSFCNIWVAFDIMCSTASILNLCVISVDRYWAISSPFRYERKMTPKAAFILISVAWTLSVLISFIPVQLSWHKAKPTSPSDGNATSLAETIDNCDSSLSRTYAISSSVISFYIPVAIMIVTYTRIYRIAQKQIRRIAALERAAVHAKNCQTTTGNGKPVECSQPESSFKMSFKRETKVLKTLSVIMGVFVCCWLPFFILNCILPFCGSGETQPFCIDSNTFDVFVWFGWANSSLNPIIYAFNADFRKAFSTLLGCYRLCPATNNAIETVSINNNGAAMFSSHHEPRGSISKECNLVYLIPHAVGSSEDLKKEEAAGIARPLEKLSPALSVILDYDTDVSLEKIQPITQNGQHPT

Ki [1]	Ki [2]	Ki [3]	Ki [4]	Ki [5]	Compound
> 10000 nM	4650 nM	> 10000 nM	> 10000 nM	–	c1ccc(Cc2ccccc2NCCN2CCCC2)cc1
2620 nM	> 10000 nM	> 10000 nM	6280 nM	–	OC(c1ccccc1)c1ccccc1OCCN1CCCC1 (stereo not given)
35.5 nM	1600 nM	546 nM	158 nM	1.8 nM	COc1ccc2c(c1)OCCN(C)CCc1ccccc1C2
33.7 nM	7800 nM	4480 nM	1020 nM	43 nM	c1ccc(Cc2ccccc2OCCN2CCCCC2)cc1
379 nM	1820 nM	1430 nM	> 10000 nM	951 nM	c1ccc(Cc2ccccc2OCCN2CCCC2)cc1
343 nM	> 10000 nM	2760 nM	2740 nM	414 nM	CN(C)CCOc1ccccc1Cc1ccccc1 [PHENYLTOLOXAMINE]
1650 nM	2410 nM	> 10000 nM	5320 nM	–	O=C(c1ccccc1)c1ccccc1OCCN1CCCC1
1960 nM	4670 nM	> 10000 nM	2020 nM	–	CCN(CC)CCOc1ccccc1Cc1ccccc1 [ETOLOXAMINE]
1480 nM	2860 nM	> 10000 nM	4190 nM	620 nM	c1ccc(Cc2ccccc2OCCN2CCN(c3ccccc3)CC2)cc1
3.2 nM	1380 nM	375 nM	274 nM	0.57 nM	CN1CCOc2cc(O)ccc2Cc2ccccc2CC1
1680 nM	> 10000 nM	> 10000 nM	> 10000 nM	–	CC1CN(CCOc2ccccc2Cc2ccccc2)CCO1 (stereo not given)
113 nM	2920 nM	1260 nM	1010 nM	113 nM	c1ccc(Cc2ccccc2OCCCN2CCCC2)cc1
201 nM	> 10000 nM	6480 nM	> 10000 nM	366 nM	c1ccc(Cc2ccccc2OCCN2CCOCC2)cc1
